The conditions of data set [1]: 1,000 mg/kg mixed glycosides by oral gavage; 6 hours; HPLC.
Data set [2] deals with T1, safety screen panel of human pharmacological targets (Homo sapiens, UniProt P04150).
T1 sequence (P04150 1-777): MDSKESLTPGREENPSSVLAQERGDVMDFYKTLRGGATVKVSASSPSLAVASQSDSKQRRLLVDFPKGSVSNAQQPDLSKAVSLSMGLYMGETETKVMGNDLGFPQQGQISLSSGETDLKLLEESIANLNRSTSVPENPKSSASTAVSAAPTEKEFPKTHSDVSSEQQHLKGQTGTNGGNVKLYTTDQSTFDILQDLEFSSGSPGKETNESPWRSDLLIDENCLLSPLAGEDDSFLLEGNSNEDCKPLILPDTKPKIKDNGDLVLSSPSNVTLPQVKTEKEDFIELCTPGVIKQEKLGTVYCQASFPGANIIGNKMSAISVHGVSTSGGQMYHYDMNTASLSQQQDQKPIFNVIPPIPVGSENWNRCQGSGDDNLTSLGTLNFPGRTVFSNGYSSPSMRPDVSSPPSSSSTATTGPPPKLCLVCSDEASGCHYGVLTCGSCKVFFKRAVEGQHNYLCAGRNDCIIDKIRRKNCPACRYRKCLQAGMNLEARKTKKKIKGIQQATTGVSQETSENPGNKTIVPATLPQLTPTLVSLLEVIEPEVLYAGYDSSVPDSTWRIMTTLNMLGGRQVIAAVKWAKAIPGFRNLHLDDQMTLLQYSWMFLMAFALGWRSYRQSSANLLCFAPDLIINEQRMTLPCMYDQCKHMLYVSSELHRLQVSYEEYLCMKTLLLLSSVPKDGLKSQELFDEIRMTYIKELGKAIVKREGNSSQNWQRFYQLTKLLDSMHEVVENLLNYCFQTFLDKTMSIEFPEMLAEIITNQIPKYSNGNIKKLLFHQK
Put plainly: biochemical. Conditions: read-out: percent inhibition: GR (h) (agonist radioligand).

For data set [3], the target named is safety screen panel of human pharmacological targets (Homo sapiens, UniProt P06239). Put plainly: biochemical. Conditions: read-out: percent inhibition: Lck kinase (h).
Data set [4] addresses T2, safety screen panel of human pharmacological targets (Homo sapiens, UniProt P11229).
T2 sequence (P11229 1-460): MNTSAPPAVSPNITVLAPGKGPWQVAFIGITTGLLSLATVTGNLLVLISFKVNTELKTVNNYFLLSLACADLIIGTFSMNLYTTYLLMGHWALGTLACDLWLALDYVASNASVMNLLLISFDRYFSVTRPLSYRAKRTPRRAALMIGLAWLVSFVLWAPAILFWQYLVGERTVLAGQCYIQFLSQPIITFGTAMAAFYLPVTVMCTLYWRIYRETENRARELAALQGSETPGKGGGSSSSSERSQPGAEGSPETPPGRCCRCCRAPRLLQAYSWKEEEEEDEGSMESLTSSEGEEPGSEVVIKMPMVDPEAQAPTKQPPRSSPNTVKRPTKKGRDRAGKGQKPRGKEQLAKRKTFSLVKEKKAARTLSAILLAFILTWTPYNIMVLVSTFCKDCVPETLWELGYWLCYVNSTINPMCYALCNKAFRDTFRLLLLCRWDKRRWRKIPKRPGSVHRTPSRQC
In words: biochemical. Conditions: read-out: percent inhibition: M1 (h) (antagonist radioligand).

Data set [5] has as its target safety screen panel of human pharmacological targets (Homo sapiens, UniProt P21728). In words: biochemical. Conditions: read-out: percent inhibition: D1 (h) (antagonist radioligand).
In data set [6] the target is safety screen panel of human pharmacological targets (Homo sapiens, UniProt P23219). In words: biochemical. Conditions: read-out: percent inhibition: COX1(h).
Data set [7] deals with safety screen panel of human pharmacological targets (Homo sapiens, UniProt P28223). Put plainly: biochemical. Conditions: read-out: percent inhibition: 5-HT2A (h) (agonist radioligand).
The target in data set [8] is safety screen panel of human pharmacological targets (Homo sapiens, UniProt P29274). In words: biochemical. Conditions: read-out: percent inhibition: A2A (h) (agonist radioligand).
For data set [9], the target named is T3, safety screen panel of human pharmacological targets (Homo sapiens, UniProt P46098).
T3 sequence (P46098 24-478): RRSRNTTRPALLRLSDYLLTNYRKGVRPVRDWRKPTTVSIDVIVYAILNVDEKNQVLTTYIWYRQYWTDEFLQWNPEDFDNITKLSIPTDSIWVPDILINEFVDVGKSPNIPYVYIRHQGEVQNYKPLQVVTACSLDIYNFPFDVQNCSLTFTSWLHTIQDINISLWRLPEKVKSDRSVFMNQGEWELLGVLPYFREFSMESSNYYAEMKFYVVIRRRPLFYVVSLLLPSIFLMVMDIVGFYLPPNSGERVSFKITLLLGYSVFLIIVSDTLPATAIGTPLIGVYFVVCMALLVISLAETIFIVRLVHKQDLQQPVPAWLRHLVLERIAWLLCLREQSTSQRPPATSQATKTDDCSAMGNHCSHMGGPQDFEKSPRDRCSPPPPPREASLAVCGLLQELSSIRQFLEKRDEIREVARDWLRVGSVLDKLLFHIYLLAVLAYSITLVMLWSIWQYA
Put plainly: biochemical. Conditions: read-out: percent inhibition: 5-HT3 (h) (antagonist radioligand).

For data set [10], the target named is safety screen panel of human pharmacological targets (Homo sapiens, UniProt Q01959). Put plainly: biochemical. Conditions: read-out: percent inhibition: dopamine transporter (b) (antagonist radioligand).

SMILES strings stand for the structures.

safety screen panel of human pharmacological targets (Homo sapiens, UniProt P28223), sequence (P28223 whole entry): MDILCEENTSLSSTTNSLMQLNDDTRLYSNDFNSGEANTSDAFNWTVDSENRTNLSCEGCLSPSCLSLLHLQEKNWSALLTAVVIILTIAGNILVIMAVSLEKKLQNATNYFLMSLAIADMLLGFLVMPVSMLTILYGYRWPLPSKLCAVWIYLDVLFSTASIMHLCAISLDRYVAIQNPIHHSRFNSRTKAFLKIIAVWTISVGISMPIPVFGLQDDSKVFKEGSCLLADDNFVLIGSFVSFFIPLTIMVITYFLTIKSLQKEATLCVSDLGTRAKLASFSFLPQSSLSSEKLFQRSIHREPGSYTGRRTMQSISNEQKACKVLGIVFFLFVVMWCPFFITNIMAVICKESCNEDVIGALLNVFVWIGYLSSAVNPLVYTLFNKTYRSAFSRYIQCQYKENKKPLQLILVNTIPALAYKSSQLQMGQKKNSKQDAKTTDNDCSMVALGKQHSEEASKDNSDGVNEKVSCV
safety screen panel of human pharmacological targets (Homo sapiens, UniProt Q01959), sequence (Q01959 whole entry): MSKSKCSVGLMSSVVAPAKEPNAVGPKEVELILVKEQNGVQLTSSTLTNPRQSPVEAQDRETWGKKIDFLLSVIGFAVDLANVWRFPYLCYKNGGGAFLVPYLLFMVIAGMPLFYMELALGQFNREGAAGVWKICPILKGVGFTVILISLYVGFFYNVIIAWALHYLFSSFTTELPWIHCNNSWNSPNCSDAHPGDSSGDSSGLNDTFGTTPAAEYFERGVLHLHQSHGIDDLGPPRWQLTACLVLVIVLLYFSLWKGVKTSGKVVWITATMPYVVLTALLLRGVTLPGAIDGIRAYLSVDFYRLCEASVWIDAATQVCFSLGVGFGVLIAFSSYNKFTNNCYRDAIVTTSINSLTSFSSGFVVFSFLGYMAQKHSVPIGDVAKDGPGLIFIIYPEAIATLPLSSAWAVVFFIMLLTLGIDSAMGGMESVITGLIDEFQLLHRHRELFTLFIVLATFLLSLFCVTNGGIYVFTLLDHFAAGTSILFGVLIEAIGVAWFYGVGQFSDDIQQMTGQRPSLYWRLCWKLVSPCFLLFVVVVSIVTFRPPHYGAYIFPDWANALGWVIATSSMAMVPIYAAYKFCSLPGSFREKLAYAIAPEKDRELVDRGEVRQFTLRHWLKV
safety screen panel of human pharmacological targets (Homo sapiens, UniProt P29274), sequence (P29274 whole entry): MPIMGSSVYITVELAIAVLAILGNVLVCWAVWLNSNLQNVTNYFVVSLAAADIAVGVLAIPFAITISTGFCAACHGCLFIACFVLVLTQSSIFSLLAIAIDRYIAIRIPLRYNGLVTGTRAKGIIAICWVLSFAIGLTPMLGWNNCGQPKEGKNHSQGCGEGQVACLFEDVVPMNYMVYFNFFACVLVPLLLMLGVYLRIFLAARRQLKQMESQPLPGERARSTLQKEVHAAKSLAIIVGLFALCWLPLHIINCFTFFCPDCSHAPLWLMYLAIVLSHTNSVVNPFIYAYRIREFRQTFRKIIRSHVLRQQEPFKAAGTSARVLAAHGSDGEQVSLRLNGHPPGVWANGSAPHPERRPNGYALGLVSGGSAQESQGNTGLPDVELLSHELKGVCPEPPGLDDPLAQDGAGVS
safety screen panel of human pharmacological targets (Homo sapiens, UniProt P06239), sequence (P06239 whole entry): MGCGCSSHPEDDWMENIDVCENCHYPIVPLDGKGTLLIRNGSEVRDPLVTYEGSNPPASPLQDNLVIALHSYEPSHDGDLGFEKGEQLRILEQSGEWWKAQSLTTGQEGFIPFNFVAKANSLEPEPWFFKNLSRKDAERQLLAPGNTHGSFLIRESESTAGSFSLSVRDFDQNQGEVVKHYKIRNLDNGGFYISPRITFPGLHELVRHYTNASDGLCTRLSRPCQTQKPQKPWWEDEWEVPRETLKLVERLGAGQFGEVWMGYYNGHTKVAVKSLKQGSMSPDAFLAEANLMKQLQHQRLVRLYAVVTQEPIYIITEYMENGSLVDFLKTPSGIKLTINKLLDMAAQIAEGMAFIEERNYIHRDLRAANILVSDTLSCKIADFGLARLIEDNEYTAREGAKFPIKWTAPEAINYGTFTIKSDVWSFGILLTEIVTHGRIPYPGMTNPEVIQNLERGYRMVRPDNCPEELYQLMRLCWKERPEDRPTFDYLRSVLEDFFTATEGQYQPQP
safety screen panel of human pharmacological targets (Homo sapiens, UniProt P23219), sequence (P23219 24-599): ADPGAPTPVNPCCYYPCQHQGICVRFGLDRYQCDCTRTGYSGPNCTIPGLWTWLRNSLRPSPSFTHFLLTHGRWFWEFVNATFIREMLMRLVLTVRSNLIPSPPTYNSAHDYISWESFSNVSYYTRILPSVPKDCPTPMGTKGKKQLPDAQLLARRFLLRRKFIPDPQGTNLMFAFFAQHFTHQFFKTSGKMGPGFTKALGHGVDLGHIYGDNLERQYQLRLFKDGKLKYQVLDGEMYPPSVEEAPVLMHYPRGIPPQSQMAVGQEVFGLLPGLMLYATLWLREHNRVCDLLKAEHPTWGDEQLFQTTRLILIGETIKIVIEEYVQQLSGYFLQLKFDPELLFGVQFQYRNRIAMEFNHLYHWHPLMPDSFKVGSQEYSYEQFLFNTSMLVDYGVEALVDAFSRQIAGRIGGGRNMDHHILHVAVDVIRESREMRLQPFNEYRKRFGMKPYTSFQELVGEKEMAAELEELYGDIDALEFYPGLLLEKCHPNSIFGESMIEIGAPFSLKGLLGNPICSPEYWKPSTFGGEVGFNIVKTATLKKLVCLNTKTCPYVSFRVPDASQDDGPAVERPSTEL
safety screen panel of human pharmacological targets (Homo sapiens, UniProt P21728), sequence (P21728 whole entry): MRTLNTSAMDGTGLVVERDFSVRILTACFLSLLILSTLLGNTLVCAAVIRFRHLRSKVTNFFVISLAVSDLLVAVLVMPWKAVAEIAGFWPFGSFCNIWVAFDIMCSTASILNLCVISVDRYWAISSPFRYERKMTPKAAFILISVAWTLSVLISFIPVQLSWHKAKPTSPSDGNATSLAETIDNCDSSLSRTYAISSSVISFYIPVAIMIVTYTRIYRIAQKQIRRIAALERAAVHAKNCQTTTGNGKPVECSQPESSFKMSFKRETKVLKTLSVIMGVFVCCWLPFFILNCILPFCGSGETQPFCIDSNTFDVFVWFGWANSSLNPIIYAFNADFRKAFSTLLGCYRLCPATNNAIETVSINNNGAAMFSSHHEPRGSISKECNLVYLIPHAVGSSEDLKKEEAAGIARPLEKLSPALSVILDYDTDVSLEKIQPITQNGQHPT

For `CCCCCc1cc(O)c2c(c1)OC(C)(C)[C@@H]1CCC(C)=C[C@@H]21` [VB301, Δ9-Terahydrocannabinol, reference compound], the “change of share of total THC-glycosides in large intestine extracts versus small intestine extracts” value in data set [1] is recorded as “appreciable amounts”. For the same compound, in data set [1], the “change of share of total THC-glycosides in small intestine extracts versus administered mixture” value was “below the limit of detection”. In addition, the inhibition at 10 µM in [2] worked out at 20%; in data set [3], 15%; in data set [4], 20%; in [5] it was 75%; in data set [6], 9%; in data set [7], 92%. Also, the values for the inhibition at 10 µM in [8], in data set [9] and in [10] were 63%, -21% and 101%, respectively.
For the compound `CCCCCc1cc(O[C@@H]2O[C@H](CO)[C@@H](O)[C@H](O)[C@H]2O)c2c(c1)OC(C)(C)[C@@H]1CCC(C)=C[C@@H]21` [VB302, Δ9THC-1-O-glucopyranoside], in [1], the “change of share of total THC-glycosides in large intestine extracts versus small intestine extracts” value is listed as “further increases”. For the same compound, the “change of share of total THC-glycosides in small intestine extracts versus administered mixture” value in data set [1] was “increases”. Moreover, the inhibition at 10 µM in [2] was -8%; in data set [3] it was -10%; in [4], -3%; in data set [5] it was 4%; in data set [6], 30%; in [7] it was 11%. Further, the inhibition at 10 µM in [8] is -11%; in data set [9] it was -4%; in data set [10], 18%.
As for `CCCCCc1cc(O[C@@H]2O[C@H](CO[C@@H]3O[C@H](CO)[C@@H](O)[C@H](O)[C@H]3O)[C@@H](O[C@@H]3O[C@H](CO)[C@@H](O)[C@H](O)[C@H]3O)[C@H](O)[C@H]2O)c2c(c1)OC(C)(C)[C@@H]1CCC(C)=C[C@@H]21` [VB311], the “change of share of total THC-glycosides in large intestine extracts versus small intestine extracts” value in data set [1] is on record as “further decreases”. For the same compound, the “change of share of total THC-glycosides in small intestine extracts versus administered mixture” value in data set [1] is on record as “sharp decrease”. The inhibition at 10 µM in data set [2] is 12%; in data set [3], 21%; in [4] it was -8%; in data set [5], 37%; in [6] it was 11%; in data set [7] it was 4%. In addition, the inhibition at 10 µM in data set [8] was -4%; in [9], -13%; in data set [10] it was 28%.

In general, inhibition refers to the change of the read-out against control, counted positive when it falls.

(Values after US20230346952A1, “CANNABINOID GLYCOSIDE PRODRUGS AND METHODS OF SYNTHESIS” (priority 2015, published 2023).)
